# Molecular target: T1, AR (Homo sapiens, UniProt P10275)
# T1 construct: endogenous in cells; host or cells: VCaP cells
# T1 sequence (P10275 1-920): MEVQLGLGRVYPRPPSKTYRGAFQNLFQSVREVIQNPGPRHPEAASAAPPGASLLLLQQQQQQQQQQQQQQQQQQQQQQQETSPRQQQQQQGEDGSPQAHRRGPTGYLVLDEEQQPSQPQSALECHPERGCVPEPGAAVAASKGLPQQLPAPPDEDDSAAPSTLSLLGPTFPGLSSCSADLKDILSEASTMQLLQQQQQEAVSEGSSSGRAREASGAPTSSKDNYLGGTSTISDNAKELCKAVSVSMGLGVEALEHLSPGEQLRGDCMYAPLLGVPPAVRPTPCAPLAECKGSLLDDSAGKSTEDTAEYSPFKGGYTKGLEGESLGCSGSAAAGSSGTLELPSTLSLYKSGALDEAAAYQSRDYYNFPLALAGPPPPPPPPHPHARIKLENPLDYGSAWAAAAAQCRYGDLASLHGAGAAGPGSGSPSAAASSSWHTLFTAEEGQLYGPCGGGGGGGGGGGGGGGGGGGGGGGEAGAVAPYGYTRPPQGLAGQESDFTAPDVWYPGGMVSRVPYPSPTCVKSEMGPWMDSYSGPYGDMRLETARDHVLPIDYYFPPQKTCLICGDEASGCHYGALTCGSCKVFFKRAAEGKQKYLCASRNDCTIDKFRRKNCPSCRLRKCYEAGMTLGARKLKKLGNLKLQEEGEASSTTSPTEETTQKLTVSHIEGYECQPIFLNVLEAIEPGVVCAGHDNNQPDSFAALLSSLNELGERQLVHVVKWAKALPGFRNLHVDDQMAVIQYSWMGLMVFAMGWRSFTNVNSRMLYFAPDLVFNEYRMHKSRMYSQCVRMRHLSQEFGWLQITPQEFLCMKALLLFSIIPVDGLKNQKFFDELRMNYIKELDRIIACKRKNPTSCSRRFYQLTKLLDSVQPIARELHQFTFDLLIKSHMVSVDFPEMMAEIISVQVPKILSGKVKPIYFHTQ
# Assay: VCAP AR Degradation Assay
# Type: cell-based
# Settings: for Y (AR degradation efficiency, % of DMSO control): class symbols *; for DC50: class symbols A-C, read-out: DC50
# Method in brief: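 24 h, 37 °C, VCaP (DMEM/8% FBS), 10-pt 1:3 dilutions from 5 μM final top, 0.1% DMSO ctrl. Lysis on ice/4 °C 1 h; total AR by sandwich ELISA, normalized to DMSO. 4PL fit → DC50, EC50, Y (min AR level).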
Structure (SMILES),"Y (AR degradation efficiency, % of DMSO control)",DC50
"C[C@@H]1CN(CCOc2ccc(N3C(=S)N(c4ccc(C#N)c(C(F)(F)F)c4)C(=O)C34CCCC4)cc2C2CC2)C[C@H](C)N1CC(=O)Nc1cccc(NC2CCC(=O)NC2=O)c1 (stereo partly drawn) [Example 266, 2-((2S,6R)-4-(2-(4-(3-(4-cyano-3-(trifluoromethyl)phenyl)-4-oxo-2-thioxo-1,3-diazaspiro[4.4]nonan-1-yl)-2-cyclopropylphenoxy)ethyl)-2,6-dimethylpiperazin-1-yl)-N-(3-(2,6-dioxopiperidin-3-ylamino)phenyl)acetamide]",* (0<Y<=25%),< 100 nM
"CCc1cc(N2C(=S)N(c3ccc(C#N)c(C(F)(F)F)c3)C(=O)C2(C)C)ccc1OCCN1CCN(C(C)(C)C(=O)Nc2cc(Cl)cc(NC3CCC(=O)NC3=O)c2)CC1 (stereo not drawn) [Example 133, N-(3-chloro-5-(2,6-dioxopiperidin-3-ylamino)phenyl)-2-(4-(2-(4-(3-(4-cyano-3-(trifluoromethyl)phenyl)-5,5-dimethyl-4-oxo-2-thioxoimidazolidin-1-yl)-2-ethylphenoxy)ethyl)piperazin-1-yl)-2-methylpropanamide]",** (25%<Y<=35%),100 to 500 nM
"C[C@@H]1CN(CCOc2ccc(N3C(=S)N(c4ccc(C#N)c(C(F)(F)F)c4)C(=O)C3(C)C)cc2C2CC2)C[C@H](C)N1CC(=O)Nc1cccc(N[C@H]2CCC(=O)NC2=O)c1 [Example 289, 2-((2R,6S)-4-(2-(4-(3-(4-cyano-3-(trifluoromethyl)phenyl)-5,5-dimethyl-4-oxo-2-thioxoimidazolidin-1-yl)-2-cyclopropylphenoxy)ethyl)-2,6-dimethylpiperazin-1-yl)-N-(3-((S)-2,6-dioxopiperidin-3-ylamino)phenyl)acetamide]",* (0<Y<=25%),< 100 nM
"CC(C)c1cc(N2C(=S)N(c3ccc(C#N)c(C(F)(F)F)c3)C(=O)C2(C)C)ccc1OCCN1CCN(CC(=O)Nc2cccc(NC3CCC(=O)NC3=O)c2)[C@H](C(F)(F)F)C1 (stereo partly drawn) [Example 257, 2-((S)-4-(2-(4-(3-(4-cyano-3-(trifluoromethyl)phenyl)-5,5-dimethyl-4-oxo-2-thioxoimidazolidin-1-yl)-2-isopropylphenoxy)ethyl)-2-(trifluoromethyl)piperazin-1-yl)-N-(3-(2,6-dioxopiperidin-3-ylamino)phenyl)acetamide]",*** (35%<Y<50%),500 to 1000 nM
CCc1cc(N2C(=S)N(c3ccc(C#N)c(C(F)(F)F)c3)C(=O)C2(C)C)ccc1OCCN1CCN(CC(=O)Nc2cccc(NC3CCC(=O)NC3=O)c2)[C@H](C)C1 (stereo partly drawn) [Example 45],* (0<Y<=25%),< 100 nM
"CCc1cc(N2C(=S)N(c3cnc(C#N)c(C(F)(F)F)c3)C(=O)C2(C)C)ccc1OCCN1C[C@@H]2CC[C@H]1CN2CC(=O)Nc1cc(Cl)cc(NC2CCC(=O)NC2=O)c1 (stereo partly drawn) [Example 179, N-(3-chloro-5-(2,6-dioxopiperidin-3-ylamino)phenyl)-2-((1S,4S)-5-(2-(4-(3-(6-cyano-5-(trifluoromethyl)pyridin-3-yl)-5,5-dimethyl-4-oxo-2-thioxoimidazolidin-1-yl)-2-ethylphenoxy)ethyl)-2,5-diazabicyclo[2.2.2]octan-2-yl)acetamide]",** (25%<Y<=35%),100 to 500 nM
"C[C@@H]1CN(CCOc2ccc(N3C(=S)N(c4ccc(C#N)c(C(F)(F)F)c4)C(=O)C34CCC4)cc2C2CC2)C[C@H](C)N1CC(=O)Nc1cccc(NC2CCC(=O)NC2=O)c1 (stereo partly drawn) [Example 225, 2-((2R,6S)-4-(2-(4-(7-(4-cyano-3-(trifluoromethyl)phenyl)-8-oxo-6-thioxo-5,7-diazaspiro[3.4]octan-5-yl)-2-cyclopropylphenoxy)ethyl)-2,6-dimethylpiperazin-1-yl)-N-(3-(2,6-dioxopiperidin-3-ylamino)phenyl)acetamide]",* (0<Y<=25%),< 100 nM
"CCc1cc(N2C(=S)N(c3cnc(C#N)c(C(F)(F)F)c3)C(=O)C2(C)C)ccc1OCCN1CCN([C@H](C)C(=O)Nc2cccc(NC3CCC(=O)NC3=O)c2)CC1 (stereo partly drawn) [Example 119, (2R)-2-(4-(2-(4-(3-(6-cyano-5-(trifluoromethyl)pyridin-3-yl)-5,5-dimethyl-4-oxo-2-thioxoimidazolidin-1-yl)-2-ethylphenoxy)ethyl)piperazin-1-yl)-N-(3-(2,6-dioxopiperidin-3-ylamino)phenyl)propanamide]",* (0<Y<=25%),< 100 nM
"CCc1cc(N2C(=S)N(c3ccc(C#N)c(C(F)(F)F)c3)C(=O)C2(C)C)c(F)cc1OCCN1C[C@@H](C)N(CC(=O)Nc2cccc(NC3CCC(=O)NC3=O)c2)[C@@H](C)C1 (stereo partly drawn) [Example 247, 2-((2S,6R)-4-(2-(4-(3-(4-cyano-3-(trifluoromethyl)phenyl)-5,5-dimethyl-4-oxo-2-thioxoimidazolidin-1-yl)-2-ethyl-5-fluorophenoxy)ethyl)-2,6-dimethylpiperazin-1-yl)-N-(3-(2,6-dioxopiperidin-3-ylamino)phenyl)acetamide]",* (0<Y<=25%),< 100 nM
"CCc1cc(N2C(=S)N(c3cnc(C#N)c(C(F)(F)F)c3)C(=O)C23CCC3)ccc1OCCN1C[C@@H](C)N(CC(=O)Nc2cc(NC3CCC(=O)NC3=O)ccc2F)[C@@H](C)C1 (stereo partly drawn) [Example 190, 2-((2S,6R)-4-(2-(4-(7-(6-cyano-5-(trifluoromethyl)pyridin-3-yl)-8-oxo-6-thioxo-5,7-diazaspiro[3.4]octan-5-yl)-2-ethylphenoxy)ethyl)-2,6-dimethylpiperazin-1-yl)-N-(5-(2,6-dioxopiperidin-3-ylamino)-2-fluorophenyl)acetamide]",* (0<Y<=25%),< 100 nM
"CCc1cc(N2C(=S)N(c3ccc(C#N)c(C(F)(F)F)c3)C(=O)C2(C)C)ccc1OCCN1C[C@@H](C)N(CC(=O)Nc2cccc(NC3CCC(=O)NC3=O)c2)[C@H](C)C1 (stereo partly drawn) [Example 129, 2-((2R,6R)-4-(2-(4-(3-(4-cyano-3-(trifluoromethyl)phenyl)-5,5-dimethyl-4-oxo-2-thioxoimidazolidin-1-yl)-2-ethylphenoxy)ethyl)-2,6-dimethylpiperazin-1-yl)-N-(3-(2,6-dioxopiperidin-3-ylamino)phenyl)acetamide]",* (0<Y<=25%),< 100 nM
"N#Cc1ccc(N2C(=O)C3(CCOC3)N(c3ccc(OCCN4CCN(CC(=O)Nc5cc(Cl)cc(NC6CCC(=O)NC6=O)c5)CC4)c(F)c3)C2=S)cc1C(F)(F)F (single isomer, unassigned) [Example 55, N-(3-chloro-5-(2,6-dioxopiperidin-3-ylamino)phenyl)-2-(4-(2-(4-(3-(4-cyano-3 (trifluoromethyl)phenyl)-4-oxo-2-thioxo-7-oxa-1,3-diazaspiro[4.4]nonan-1-yl)-2-fluorophenoxy)ethyl)piperazin-1-yl)acetamide]",** (25%<Y<=35%),100 to 500 nM
"CC(C)c1cc(N2C(=S)N(c3ccc(C#N)c(C(F)(F)F)c3)C(=O)C23CCC3)cnc1OCCN1C[C@@H](C)N(CC(=O)Nc2cc(C#N)cc(NC3CCC(=O)NC3=O)c2)C[C@H]1C (stereo partly drawn) [Example 231, 2-((2R,5R)-4-(2-(5-(7-(4-cyano-3-(trifluoromethyl)phenyl)-8-oxo-6-thioxo-5,7-diazaspiro[3.4]octan-5-yl)-3-isopropylpyridin-2-yloxy)ethyl)-2,5-dimethylpiperazin-1-yl)-N-(3-cyano-5-(2,6-dioxopiperidin-3-ylamino)phenyl)acetamide]",* (0<Y<=25%),100 to 500 nM
"C[C@@H]1CN(CCOc2ccc(N3C(=S)N(c4ccc(C#N)c(C(F)(F)F)c4)C(=O)C3(C)C)cc2F)C[C@H](C)N1CC(=O)Nc1cccc(NC2CCC(=O)NC2=O)c1 (stereo partly drawn) [Example 278, 2-((2S,6R)-4-(2-(4-(3-(4-cyano-3-(trifluoromethyl)phenyl)-5,5-dimethyl-4-oxo-2-thioxoimidazolidin-1-yl)-2-fluorophenoxy)ethyl)-2,6-dimethylpiperazin-1-yl)-N-(3-(2,6-dioxopiperidin-3-ylamino)phenyl)acetamide]",* (0<Y<=25%),< 100 nM
"CCc1cc(N2C(=S)N(c3ccc(C#N)c(C(F)(F)F)c3)C(=O)C2(C)C)ccc1OCCN1C[C@H](C)N(CC(=O)Nc2cc(Cl)cc(NC3CCC(=O)NC3=O)c2)[C@@H](C)C1 (stereo partly drawn) [Example 147, N-(3-chloro-5-(2,6-dioxopiperidin-3-ylamino)phenyl)-2-((2S,6S)-4-(2-(4-(3-(4-cyano-3-(trifluoromethyl)phenyl)-5,5-dimethyl-4-oxo-2-thioxoimidazolidin-1-yl)-2-ethylphenoxy)ethyl)-2,6-dimethylpiperazin-1-yl)acetamide]",* (0<Y<=25%),< 100 nM

# — US12404241B2 (Celgene Corporation, priority 2018, dated 2025)
